Values belong to the compound of their own block, whether it stands above or below them. Where a SMILES comes first, the peptide text is derived from it. Bridges are numbered along the chain shown (N, C = ends). [ ]: non-standard residue; d: D form. Dab = NCC[C@H](N)C(=O)O
Legend:
Acinetobacter baumannii [1] = assay: Antibacterial adjuvant activity against Acinetobacter baumannii AB5075 assessed as decrease in vancomycin MIC at 30 uM incubated for 16 hrs in presence of vancomycin by broth microdilution method; type: functional
Acinetobacter baumannii [2] = assay: Antibacterial adjuvant activity against Acinetobacter baumannii AB5075 assessed as decrease in clarithromycin MIC at 10 uM incubated for 16 hrs in presence of clarithromycin by broth microdilution method; type: functional
Acinetobacter baumannii [3] = assay: Antibacterial adjuvant activity against Acinetobacter baumannii AB5075 assessed as decrease in clarithromycin MIC at 30 uM incubated for 16 hrs in presence of clarithromycin by broth microdilution method; type: functional
Escherichia coli [4] = assay: Antibacterial activity against Escherichia coli IH3080 assessed as reduction in bacterial growth by measuring fold change incubated for 18 hrs by spectrophotometry; type: functional
Salmonella typhimurium [5] = assay: Antibacterial activity against Salmonella typhimurium SH5014 assessed as reduction in bacterial growth by measuring fold change incubated for 18 hrs by spectrophotometry; type: functional, Salmonella enterica subsp. enterica serovar Typhimurium
Salmonella typhimurium [6] = assay: Antibacterial activity against Salmonella typhimurium SH5014 assessed as reduction in bacterial growth by measuring fold change at 3 ug/ml incubated for 18 hrs by spectrophotometry; type: functional, Salmonella enterica subsp. enterica serovar Typhimurium; conditions: dose 3 µg/ml
Escherichia coli [7] = assay: Antibacterial activity against Escherichia coli IH3080 assessed as reduction in bacterial growth by measuring fold change at 3 ug/ml incubated for 18 hrs by spectrophotometry; type: functional; conditions: dose 3 µg/ml
Pseudomonas aeruginosa [8] = assay: Antibacterial adjuvant activity against Pseudomonas aeruginosa PAO1 assessed as decrease in azithromycin MIC at 60 uM incubated for 16 hrs in presence of azithromycin by broth microdilution method; type: functional
Pseudomonas aeruginosa [9] = assay: Antibacterial adjuvant activity against Pseudomonas aeruginosa PAO1 assessed as decrease in azithromycin MIC at 40 uM incubated for 16 hrs in presence of azithromycin by broth microdilution method; type: functional
Acinetobacter baumannii [10] = assay: Synergistic antibacterial activity against colistin-sensitive Acinetobacter baumannii ATCC 17978 infected in C57BL/6 mouse assessed as increase in survival rate at 5 mg/kg,po administered in presence of pentamidine for 7 days; type: functional; conditions: ATCC 17978, 168 h, time 7 day
Acinetobacter baumannii [11] = assay: Synergistic antibacterial activity against colistin-resistant Acinetobacter baumannii ATCC 17978 infected in C57BL/6 mouse assessed as increase in survival rate at 50 mg/kg,po administered in presence of pentamidine for 7 days; type: functional; conditions: ATCC 17978, 168 h, time 7 day
[12] = Binding affinity to Escherichia coli Lipid A assessed as dissociation constant
Acinetobacter baumannii [13] = assay: Synergistic antibacterial activity against colistin-resistant Acinetobacter baumannii ATCC 17978 infected in C57BL/6 mouse assessed as increase in survival rate at 10 mg/kg,po administered in presence of novobiocin for 7 days; type: functional; conditions: ATCC 17978, 168 h, time 7 day
Acinetobacter baumannii [14] = assay: Synergistic antibacterial activity against colistin-sensitive Acinetobacter baumannii ATCC 17978 infected in C57BL/6 mouse assessed as increase in survival rate at 10 mg/kg,po administered in presence of novobiocin for 7 days; type: functional; conditions: ATCC 17978, 168 h, time 7 day
Acinetobacter baumannii [15] = assay: Antibacterial activity against Acinetobacter baumannii infected in mouse assessed as increase in survival rate at 5 mg/kg,po administered bid for 3 days; type: functional; conditions: 72 h, time 3 day
Acinetobacter baumannii [16] = assay: Synergistic antibacterial activity against Acinetobacter baumannii infected in mouse assessed as reduction of bacterial burden in lung at 5 mg/kg,po administered bid in presence of SPR741 for 3 days; type: functional; conditions: time 3 day
Acinetobacter baumannii [17] = assay: Synergistic antibacterial activity against Acinetobacter baumannii infected in mouse assessed as increase in survival rate at 5 mg/kg,po administered bid in presence of SPR741 for 3 days; type: functional; conditions: 72 h, time 3 day
Acinetobacter baumannii [18] = assay: Antibacterial activity against Acinetobacter baumannii infected in mouse assessed as reduction of bacterial burden in lung at 5 mg/kg,po administered bid for 3 days; type: functional; conditions: time 3 day
Acinetobacter baumannii [19] = assay: Synergistic antibacterial activity against Acinetobacter baumannii infected in mouse assessed as increase in survival rate at 60 mg/kg,po administered bid in presence of rifampin for 3 days; type: functional; conditions: 72 h, time 3 day
Acinetobacter baumannii [20] = assay: Synergistic antibacterial activity against Acinetobacter baumannii infected in mouse assessed as reduction of bacterial burden in lung at 60 mg/kg,po administered bid in presence of rifampin for 3 days; type: functional; conditions: time 3 day

MIC (Acinetobacter baumannii [1]): 1 µg/mL | MIC (Acinetobacter baumannii [2]): 2 µg/mL | MIC (Acinetobacter baumannii [3]): 0.25 µg/mL
Compound: Nc1nc(-c2ccc(NC(=O)c3cc(Cl)cc(Cl)c3)cc2)c[nH]1

MIC (Acinetobacter baumannii [1]): 1 µg/mL | MIC (Acinetobacter baumannii [2]): 2 µg/mL | MIC (Acinetobacter baumannii [3]): 0.25 µg/mL
Compound: Nc1ncc(-c2ccc(NC(=O)c3cc(Br)cc(Br)c3)cc2)[nH]1

Compound: CC(C)C[C@@H]1NC(=O)[C@@H](Cc2ccccc2)NC(=O)[C@H](CCN)NC(=O)[C@@H](NC(=O)[C@H](CCN)NC(=O)[C@@H](NC(=O)[C@@H](N)CCN)[C@H](C)O)CCNC(=O)[C@H]([C@@H](C)O)NC(=O)[C@H](CCN)NC(=O)[C@H](CCN)NC1=O
fold change (FC) (Escherichia coli [4]): 300 | fold change (FC) (Salmonella typhimurium [5]): 300

Compound: CC(C)C[C@@H]1NC(=O)[C@@H](Cc2ccccc2)NC(=O)[C@H](CCN)NC(=O)[C@@H](NC(=O)[C@H](CCN)NC(=O)[C@@H](N)[C@H](C)O)CCNC(=O)[C@H]([C@@H](C)O)NC(=O)[C@H](CCN)NC(=O)[C@H](CCN)NC1=O
fold change (FC) (Salmonella typhimurium [6]): 10 | fold change (FC) (Escherichia coli [7]): 10

MIC (Pseudomonas aeruginosa [8]): 0.25 µg/mL | MIC (Pseudomonas aeruginosa [9]): 1 µg/mL
Compound: NCCCC(c1c[nH]c(N)n1)c1cnc(N)[nH]1

Compound: CC(C)C[C@@H]1NC(=O)[C@@H](CC(C)C)NC(=O)[C@H](CCN)NC(=O)[C@@H](NC(=O)[C@H](CCN)NC(=O)[C@@H](NC(=O)[C@@H](N)CCN)[C@H](C)O)CCNC(=O)[C@H]([C@@H](C)O)NC(=O)[C@H](CCN)NC(=O)[C@H](CCN)NC1=O
fold change (FC) (Escherichia coli [4]): 300 | fold change (FC) (Salmonella typhimurium [5]): 300

Compound: CO[C@@H]1[C@@H](OC(N)=O)[C@@H](O)[C@H](Oc2ccc3c(O)c(NC(=O)c4ccc(O)c(CC=C(C)C)c4)c(=O)oc3c2C)OC1(C)C [NOVOBIOCIN]
survival at 5 mg/kg (Acinetobacter baumannii [10]): 100% | survival at 50 mg/kg (Acinetobacter baumannii [11]): 90%

Compound: N=C(N)c1ccc(OCCCCCOc2ccc(C(=N)N)cc2)cc1 [PENTAMIDINE]
Kd [12]: 0.12 µM | survival at 10 mg/kg (Acinetobacter baumannii [13]): 90% | survival at 10 mg/kg (Acinetobacter baumannii [14]): 100%

Compound: CO[C@H]1/C=C/O[C@@]2(C)Oc3c(C)c(O)c4c(O)c(c(/C=N/N5CCN(C)CC5)c(O)c4c3C2=O)NC(=O)/C(C)=C\C=C\[C@H](C)[C@H](O)[C@@H](C)[C@@H](O)[C@@H](C)[C@H](OC(C)=O)[C@@H]1C [RIFAMPIN]
survival at 5 mg/kg (Acinetobacter baumannii [15]): 50% | Activity (Acinetobacter baumannii [16]): 6 log10CFU/g | survival at 5 mg/kg (Acinetobacter baumannii [17]): 90% | Activity (Acinetobacter baumannii [18]): 2 log10CFU/g

Compound: CC(=O)N[C@H](C(=O)N[C@H](CO)C(=O)N[C@H]1CCNC(=O)[C@H]([C@@H](C)O)NC(=O)[C@H](CCN)NC(=O)[C@H](CCN)NC(=O)[C@H](CC(C)C)NC(=O)[C@@H](Cc2ccccc2)NC(=O)[C@H](CCN)NC1=O)[C@@H](C)O [SPR-741] (Ac-T[dS][Dab][Dab][dF]L[Dab][Dab]T; lactam 3-C)
survival at 60 mg/kg (Acinetobacter baumannii [19]): 90% | Activity (Acinetobacter baumannii [20]): 6 log10CFU/g
